# Experiments:
# [1] = Solubility evaluation of diols containing an acid group in NMP or DPGDME; type: physicochemical; on Solubility, DMBA in DPGDGME (75° C.): key: An entry of 'Yes' indicates completely soluble; an entry of 'No' means not fully soluble; on Solubility, DMBA in NMP (25° C.): key: An entry of 'Yes' indicates completely soluble; an entry of 'No' means not fully soluble; on Solubility, DMPA in DPDGME (95° C.): key: An entry of 'Yes' indicates completely soluble; an entry of 'No' means not fully soluble; on Solubility, DMPA in NMP (25° C.): key: An entry of 'Yes' indicates completely soluble; an entry of 'No' means not fully soluble
# Protocol: The solubility of certain diols containing an acid group (2,2-dimethylolpropionic acid (DMPA) and 2,2-dimethylolbutanoic acid (DMBA)) in dipropylene glycol dimethyl ether (DPGDME) and in N-methyl-2-pyrrolidone (NMP) are evaluated at different temperatures. The DPGDME used is PROGLYDE™ DMM (The Dow Chemical Company). The following concentrations with corresponding amounts of DMPA or DMBA and of solvent (DPGDME or NMP) are evaluated:
# Using a 30 milliliter glass vial with a 24-mm black phenolic screw cap with poly seal liner from Fisher, the […] (DMBA or DMPA) is added at 5 wt. %, 10 wt. %, 15 wt. %, 20 wt. %, and 25 wt. % in the solvent (NMP or DPGDME) as specified in Table 1. Samples are heated on a high throughput heating/mixing station from 25° C. to 100° C. in 10° C. increments while mixing at 500 rpm with a magnetic stir bar. Samples are then removed an image is taken to record solubility.
# [2] = animal testing; cited from earlier work
structure (smiles),measurement,setting,value
"CCC(CO)(CO)C(=O)O [DMBA, 2,2-dimethylolbutanoic acid]","Solubility, DMBA in DPGDGME (75° C.)","[1]; 5 weight % in DPGDGME, 75° C.",Yes
same,"Solubility, DMBA in NMP (25° C.)",[1]; 5 weight % in NMP,Yes
same,"Solubility, DMBA in DPGDGME (75° C.)","[1]; 10 weight % in DPGDGME, 75° C.",Yes
same,"Solubility, DMBA in NMP (25° C.)",[1]; 10 weight % in NMP,Yes
same,"Solubility, DMBA in DPGDGME (75° C.)","[1]; 15 weight % in DPGDGME, 75° C.",Yes
same,"Solubility, DMBA in NMP (25° C.)",[1]; 15 weight % in NMP,Yes
same,"Solubility, DMBA in DPGDGME (75° C.)","[1]; 20 weight % in DPGDGME, 75° C.",Yes
same,"Solubility, DMBA in NMP (25° C.)",[1]; 20 weight % in NMP,Yes
same,"Solubility, DMBA in DPGDGME (75° C.)","[1]; 25 weight % in DPGDGME, 75° C.",Yes
same,"Solubility, DMBA in NMP (25° C.)",[1]; 25 weight % in NMP,Yes
same,Solubility in DPGDME,[1]; 75° C.,fully dissolve
same,Solubility in both solvents tested (NMP and DPGDME),"[1]; all concentrations up to 25 weight %, varying temperatures",soluble
"CN1CCCC1=O [NMP, N-methyl-2-pyrrolidone]",Reproductive toxicity,[2],shows reproductive toxicity
"CC(CO)(CO)C(=O)O [DMPA, 2,2-dimethylolpropionic acid]","Solubility, DMPA in DPDGME (95° C.)","[1]; 5 weight % in DPDGME, 95° C.",No
same,"Solubility, DMPA in NMP (25° C.)",[1]; 5 weight % in NMP,Yes
same,Solubility in DPGDGME,"[1]; 5 weight %, 95° C.",not fully soluble
same,"Solubility, DMPA in DPDGME (95° C.)","[1]; 10 weight % in DPDGME, 95° C.",No
same,"Solubility, DMPA in NMP (25° C.)",[1]; 10 weight % in NMP,Yes
same,"Solubility, DMPA in DPDGME (95° C.)","[1]; 15 weight % in DPDGME, 95° C.",No
same,"Solubility, DMPA in NMP (25° C.)",[1]; 15 weight % in NMP,Yes
same,"Solubility, DMPA in DPDGME (95° C.)","[1]; 20 weight % in DPDGME, 95° C.",No
same,"Solubility, DMPA in NMP (25° C.)",[1]; 20 weight % in NMP,Yes
same,"Solubility, DMPA in DPDGME (95° C.)","[1]; 25 weight % in DPDGME, 95° C.",No
same,"Solubility, DMPA in NMP (25° C.)",[1]; 25 weight % in NMP,Yes
same,Solubility in DPGDME (overall),[1]; in DPGDME,poor
same,Solubility in NMP,"[1]; room temperature (25° C.), all concentrations up to 25 weight %, upon mixing in NMP",completely soluble
